Calls of active or inactive are those of the source.
Columns and labels:
[1] = toxicity toward HepG2 liver cells – cell-based, plate reader, cherry-pick, antagonist series, cytotoxicity control, dose response (AID 743416); format: functional
[2] = blockade of melanocortin 4 receptor signaling – cell-based, plate reader, cherry pick, counter-screen for LGR2 antagonist project, dose response (AID 743444); format: functional;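 also: transfected HEK 293 cells stimulated with alpha-MSH peptide; potency of inhibitors of the alpha-MSH evoked signal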
[3] = A549 cell cytotoxicity, dose response, cytotoxicity control, plate reader, cherry-pick, antagonist series (AID 743412); format: functional, cell-based
[4] = viability loss in HEK293 cells – cell-based, plate reader, cherry-picked samples, cytotoxicity control, dose response (AID 743446); format: functional
[5] = blockers of bursicon-stimulated LGR2 cAMP reporter – cell-based, HEK293, CRE-luciferase reporter, cherry pick, set 2, dose response (AID 743343); format: functional;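 also: transfected cells were stimulated with diluted bursicon conditioned medium after compound addition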
Streptococcus = assay: GAS UMAA2166 growth inhibition – luminescence, BacTiterGlo, counter-screen for streptokinase expression inhibitor project, dose response (AID 1915); format: functional, organism-based;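 also: potency for reduction of bacterial viability or growth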
[6] = Luminescence-based counterscreen assay for KLF5 inhibitors: dose response cell-based high throughput screening assay to identify cytotoxic compounds using the IEC-6 intestinal epithelial cell line. [Related pubchem assays: 1700 (Primary screen.), 1834 (Confirmation screen.), 1858 (Summary AID.), 1905 (Counterscreen.)]; format: functional
Streptokinase A = target: T1, Streptokinase A (Streptococcus pyogenes serotype M1, UniProt P10520); assay: viability-normalized secreted streptokinase activity reduction – plasminogen activation absorbance, OD405, dose response (AID 1914); format: functional, Streptococcus pyogenes M1 GAS;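 also: secreted streptokinase activity via plasminogen activation per viability signal from cell pellet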
T1 sequence (P10520 whole entry): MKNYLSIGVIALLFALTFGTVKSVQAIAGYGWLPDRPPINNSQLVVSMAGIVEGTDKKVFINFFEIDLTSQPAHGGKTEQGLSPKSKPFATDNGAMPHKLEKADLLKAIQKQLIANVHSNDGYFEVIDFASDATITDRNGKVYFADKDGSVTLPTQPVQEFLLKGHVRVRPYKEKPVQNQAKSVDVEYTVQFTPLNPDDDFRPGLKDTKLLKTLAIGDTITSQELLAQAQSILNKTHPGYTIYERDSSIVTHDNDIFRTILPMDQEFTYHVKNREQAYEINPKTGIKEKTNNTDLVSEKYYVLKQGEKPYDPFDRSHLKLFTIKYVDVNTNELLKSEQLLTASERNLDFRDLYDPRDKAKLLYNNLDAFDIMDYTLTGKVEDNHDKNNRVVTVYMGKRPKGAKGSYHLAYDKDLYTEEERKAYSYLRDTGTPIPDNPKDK

[7] = system: Streptococcus sp. 'group A'; assay: Streptococcus pyogenes SK(-)GAS viability under kanamycin – luminescence, BacTiterGlo, confirmation, counter-screen for streptokinase expression inhibitor project, dose response (AID 1900); format: functional, organism-based
[8] = inhibition of ADAM10 peptide cleavage – biochemical, FRET peptide substrate, recombinant human ADAM10, selectivity assay for ADAM17 exosite inhibitor project, dose response (AID 743259);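 also: ADAM10 enzyme cleaving a FRET peptide substrate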
[9] = target: Disintegrin and metalloproteinase domain-containing protein 17 (Homo sapiens, UniProt P78536); assay: exosite inhibitors of ADAM17, dose response, biochemical (AID 743260)
Chain of Disintegrin and metalloproteinase domain-containing protein 17 (P78536 whole entry, the tested form may be a part): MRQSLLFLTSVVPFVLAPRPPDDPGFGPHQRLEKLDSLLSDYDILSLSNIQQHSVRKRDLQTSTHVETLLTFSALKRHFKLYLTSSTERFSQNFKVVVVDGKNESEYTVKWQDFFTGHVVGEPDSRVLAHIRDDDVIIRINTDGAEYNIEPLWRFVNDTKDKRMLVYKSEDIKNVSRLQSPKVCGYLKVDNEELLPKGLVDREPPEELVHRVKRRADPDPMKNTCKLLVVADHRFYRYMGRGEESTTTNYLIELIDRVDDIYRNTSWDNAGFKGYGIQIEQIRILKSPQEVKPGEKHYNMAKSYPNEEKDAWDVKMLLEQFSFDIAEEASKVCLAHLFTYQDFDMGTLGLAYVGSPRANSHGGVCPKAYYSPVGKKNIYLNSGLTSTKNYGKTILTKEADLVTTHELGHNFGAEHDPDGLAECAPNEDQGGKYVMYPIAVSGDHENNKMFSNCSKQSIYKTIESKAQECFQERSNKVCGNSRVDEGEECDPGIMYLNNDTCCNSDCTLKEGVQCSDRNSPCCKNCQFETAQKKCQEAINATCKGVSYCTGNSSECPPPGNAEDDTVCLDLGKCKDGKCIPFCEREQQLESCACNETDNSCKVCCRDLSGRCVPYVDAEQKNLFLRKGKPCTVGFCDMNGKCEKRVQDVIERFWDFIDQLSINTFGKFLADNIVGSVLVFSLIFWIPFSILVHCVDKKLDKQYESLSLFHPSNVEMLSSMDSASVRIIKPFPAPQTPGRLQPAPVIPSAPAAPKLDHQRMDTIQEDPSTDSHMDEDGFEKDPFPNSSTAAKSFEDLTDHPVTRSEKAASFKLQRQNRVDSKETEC

HEK293 = assay: viability loss in HEK293T cells – cell-based, ATP luminescence, cherry-pick samples, cytotoxicity control, dose response (AID 687005); format: functional; details: Homo sapiens;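 also: cells exposed to compound for 48 hours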
[10] = viability loss in THP-1 monocytes – THP-1 cells, cytotoxicity control for Vif-APOBEC3G degradation inhibitor project, dose response (AID 1117359); format: functional; details: THP-1
[11] = HEK293 Cytotoxicity Assay Measured in Cell-Based System Using Plate Reader - 7071-01_Inhibitor_Dose_CherryPick_Activity_Set2.; format: functional
[12] = target: T2, Methionyl-tRNA synthetase, putative (Trypanosoma brucei brucei, UniProt Q38C91); format: functional, Trypanosoma brucei brucei strain 927/4 GUTat10.1
T2 sequence (Q38C91 whole entry): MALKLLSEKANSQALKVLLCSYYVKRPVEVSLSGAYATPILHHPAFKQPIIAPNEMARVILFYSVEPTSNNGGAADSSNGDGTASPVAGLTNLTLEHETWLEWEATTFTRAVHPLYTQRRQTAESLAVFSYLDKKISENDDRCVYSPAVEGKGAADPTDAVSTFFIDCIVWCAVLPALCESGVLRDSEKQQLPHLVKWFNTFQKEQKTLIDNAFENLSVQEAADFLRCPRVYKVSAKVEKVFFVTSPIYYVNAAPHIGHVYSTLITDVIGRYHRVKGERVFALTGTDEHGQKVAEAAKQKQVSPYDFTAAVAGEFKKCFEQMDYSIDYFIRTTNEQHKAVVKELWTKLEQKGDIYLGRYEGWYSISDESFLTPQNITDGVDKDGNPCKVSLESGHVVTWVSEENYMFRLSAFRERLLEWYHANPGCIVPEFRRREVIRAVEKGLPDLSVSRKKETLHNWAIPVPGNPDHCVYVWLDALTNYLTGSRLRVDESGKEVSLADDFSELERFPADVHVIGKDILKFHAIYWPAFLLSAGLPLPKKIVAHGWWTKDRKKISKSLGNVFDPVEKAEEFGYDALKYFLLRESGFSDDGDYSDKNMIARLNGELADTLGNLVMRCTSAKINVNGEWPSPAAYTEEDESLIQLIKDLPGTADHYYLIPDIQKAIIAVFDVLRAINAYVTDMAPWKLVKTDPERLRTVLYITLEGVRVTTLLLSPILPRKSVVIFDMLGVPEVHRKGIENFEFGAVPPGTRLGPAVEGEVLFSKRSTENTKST

[13] = Counterscreen for inhibitors of Trypanosoma brucei methionyl tRNA synthetase (MetRS): Luminescence-based cell-based high throughput dose response assay to identify compounds that are cytotoxic to Jurkat human T lymphocyte cells.; format: functional
[14] = target: T2, Methionyl-tRNA synthetase, putative; format: functional, Trypanosoma brucei brucei strain 927/4 GUTat10.1; remark: listed apart in the source
[15] = viability loss of HPDE-C7K cells – cell-based, fluorescence, HTS, primary screen (AID 431); format: functional; details: Homo sapiens
[16] = HPDE-C7 pancreatic duct cell viability loss – fluorescence, HTS (AID 430); format: functional, cell-based; details: Homo sapiens
[17] = Counterscreen for activators of the function of SWI/SNF related, matrix associated, actin dependent regulator of chromatin, subfamily a, member 2 (SMARCA2, BRM): Luminescence-based cell-based high throughput dose response assay to identify non-selective compounds using the VP16 reporter assay.; format: functional
[18] = target: SWI/SNF-related matrix-associated actin-dependent regulator of chromatin subfamily A member 2 (Homo sapiens, UniProt P51531); assay: Luminescence-based cell-based high throughput dose response assay to identify activators of the function of SWI/SNF related, matrix associated, actin dependent regulator of chromatin, subfamily a, member 2 (SMARCA2, BRM).; format: functional
Chain of SWI/SNF-related matrix-associated actin-dependent regulator of chromatin subfamily A member 2 (P51531 whole entry, the tested form may be a part): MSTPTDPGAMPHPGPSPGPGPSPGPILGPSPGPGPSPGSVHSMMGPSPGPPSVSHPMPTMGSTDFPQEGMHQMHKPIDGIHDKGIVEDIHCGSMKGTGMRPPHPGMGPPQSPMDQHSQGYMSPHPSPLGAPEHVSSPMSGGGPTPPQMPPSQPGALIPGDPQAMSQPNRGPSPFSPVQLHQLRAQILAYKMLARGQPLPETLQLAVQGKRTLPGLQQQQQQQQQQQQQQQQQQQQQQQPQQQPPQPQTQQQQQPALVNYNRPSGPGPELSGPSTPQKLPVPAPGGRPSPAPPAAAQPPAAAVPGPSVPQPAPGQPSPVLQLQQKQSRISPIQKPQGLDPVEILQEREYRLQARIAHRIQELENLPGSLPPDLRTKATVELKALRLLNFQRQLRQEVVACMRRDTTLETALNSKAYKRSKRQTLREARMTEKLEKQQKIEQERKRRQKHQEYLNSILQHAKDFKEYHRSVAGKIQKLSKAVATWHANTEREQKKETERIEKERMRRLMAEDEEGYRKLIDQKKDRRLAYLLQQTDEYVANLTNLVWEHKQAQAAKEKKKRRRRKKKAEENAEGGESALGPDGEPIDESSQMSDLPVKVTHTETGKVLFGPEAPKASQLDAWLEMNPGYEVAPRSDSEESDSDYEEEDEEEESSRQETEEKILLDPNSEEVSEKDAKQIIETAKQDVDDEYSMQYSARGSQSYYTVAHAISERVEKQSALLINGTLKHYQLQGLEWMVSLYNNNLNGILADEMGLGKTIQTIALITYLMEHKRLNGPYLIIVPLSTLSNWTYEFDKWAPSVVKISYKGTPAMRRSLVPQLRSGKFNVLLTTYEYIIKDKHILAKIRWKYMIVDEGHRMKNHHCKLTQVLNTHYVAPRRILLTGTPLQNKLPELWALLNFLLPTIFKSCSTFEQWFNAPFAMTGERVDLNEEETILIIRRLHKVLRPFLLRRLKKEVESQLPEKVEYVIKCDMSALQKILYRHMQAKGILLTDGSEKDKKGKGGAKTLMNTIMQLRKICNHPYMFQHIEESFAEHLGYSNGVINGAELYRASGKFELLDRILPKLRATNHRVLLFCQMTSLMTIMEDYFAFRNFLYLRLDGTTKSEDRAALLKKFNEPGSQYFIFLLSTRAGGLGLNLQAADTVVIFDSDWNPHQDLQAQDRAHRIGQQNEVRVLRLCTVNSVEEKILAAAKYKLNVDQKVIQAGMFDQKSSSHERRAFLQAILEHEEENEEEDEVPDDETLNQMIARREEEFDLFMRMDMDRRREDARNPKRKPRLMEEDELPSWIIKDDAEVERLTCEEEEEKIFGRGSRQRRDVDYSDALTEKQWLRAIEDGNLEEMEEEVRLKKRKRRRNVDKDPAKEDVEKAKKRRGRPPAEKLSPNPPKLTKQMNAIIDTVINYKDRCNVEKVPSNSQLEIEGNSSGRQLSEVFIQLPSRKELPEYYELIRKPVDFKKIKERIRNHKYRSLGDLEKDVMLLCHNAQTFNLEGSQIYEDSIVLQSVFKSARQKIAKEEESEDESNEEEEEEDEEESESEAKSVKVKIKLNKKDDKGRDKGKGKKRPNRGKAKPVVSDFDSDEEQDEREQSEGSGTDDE

[19] = HIV-1 AD8 envelope cell-cell fusion blockers – cherry-pick, dose response (AID 652062); format: functional, cell-based;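 also: luciferase signal from cell-cell fusion driven by HIV-1 clade B AD8 Env; potency is for inhibitors of fusion seen as a drop in luminescence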
[20] = blockers of HIV-1 envelope-mediated cell-cell fusion – cherry-pick, dose response (AID 652057); format: functional, cell-based
[21] = blockers of HIV-1 ZM109 envelope-driven cell-cell fusion – HeLa effector, CEM target cells, luciferase, cherry-pick, dose response (AID 652058); format: functional, cell-based;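 also: luciferase signal from HIV-1 Env mediated cell-cell fusion of effector and target cells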
[22] = viability loss in CEM21 cells – cell-based, CellTiter-Glo luminescence, cherry-picked, cytotoxicity control for viral fusion inhibitor project, dose response (AID 652042); format: functional;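 also: potency for signal decrease meaning cytotoxicity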
[23] = Luminescence Cell-Based Dose Retest to Confirm Inhibitors of Cancer Stem Cells. [Related pubchem assays (depositor defined):AID2717, AID2721]; format: functional; details: Homo sapiens
[24] = target: T3, Heat shock factor protein 1 (Mus musculus, UniProt P38532); assay: enhancement of HSF1-driven luciferase signal – cell-based, NIH3T3, luminescence, dose retest, confirmation (AID 435004); format: functional;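 also: stress induced by proteasome inhibitor MG132 added 30 min after compound; luciferase reporter driven by HSF1 response element in NIH3T3 cells; actives raise luminescence as potentiators of the MG132 stress response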
T3 sequence (P38532 whole entry): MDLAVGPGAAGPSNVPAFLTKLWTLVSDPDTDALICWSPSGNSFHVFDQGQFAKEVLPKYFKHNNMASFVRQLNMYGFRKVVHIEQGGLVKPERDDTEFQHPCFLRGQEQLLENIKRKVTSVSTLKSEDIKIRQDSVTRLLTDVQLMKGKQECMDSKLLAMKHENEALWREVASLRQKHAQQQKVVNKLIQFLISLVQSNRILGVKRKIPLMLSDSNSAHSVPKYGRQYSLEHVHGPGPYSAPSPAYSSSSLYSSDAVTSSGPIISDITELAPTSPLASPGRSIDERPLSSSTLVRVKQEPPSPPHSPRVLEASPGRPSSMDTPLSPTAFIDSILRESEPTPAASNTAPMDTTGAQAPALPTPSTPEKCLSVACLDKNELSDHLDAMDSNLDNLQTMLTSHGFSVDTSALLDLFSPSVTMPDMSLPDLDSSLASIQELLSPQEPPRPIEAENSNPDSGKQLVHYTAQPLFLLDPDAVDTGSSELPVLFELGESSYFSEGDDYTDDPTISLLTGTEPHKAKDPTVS

[25] = viability loss in HEK293T cells – cell-based, cherry-picks, cytotoxicity control for HIV Vif inhibitor project, dose response (AID 652208); format: functional
cells = format: functional, cell-based
[26] = target: T4, Nuclear receptor subfamily 0 group B member 1 (Homo sapiens, UniProt P51843); format: functional, cell-based;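 also: HEK293T cells transfected with SF-1 and DAX-1 plus StAR promoter luciferase reporter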
T4 sequence (P51843 whole entry): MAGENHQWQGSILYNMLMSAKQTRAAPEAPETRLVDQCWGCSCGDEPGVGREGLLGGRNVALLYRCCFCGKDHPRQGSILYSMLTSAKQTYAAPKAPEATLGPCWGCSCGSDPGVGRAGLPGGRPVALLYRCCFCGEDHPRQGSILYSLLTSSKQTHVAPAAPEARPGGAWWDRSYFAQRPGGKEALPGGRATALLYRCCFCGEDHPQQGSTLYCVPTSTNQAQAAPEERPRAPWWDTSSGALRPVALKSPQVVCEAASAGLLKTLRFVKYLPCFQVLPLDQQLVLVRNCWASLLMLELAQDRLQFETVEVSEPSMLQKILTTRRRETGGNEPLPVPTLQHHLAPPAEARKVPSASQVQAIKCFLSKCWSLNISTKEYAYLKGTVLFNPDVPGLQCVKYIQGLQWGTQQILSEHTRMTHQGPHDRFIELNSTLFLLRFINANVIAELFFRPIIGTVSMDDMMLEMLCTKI

Mu-type opioid receptor = Mu-type opioid receptor (Homo sapiens, UniProt P35372); format: functional, cell-based;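 also: U2OS cells with beta-arrestin recruitment to OPRM1 by beta-gal complementation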
Chain of Mu-type opioid receptor (P35372 whole entry): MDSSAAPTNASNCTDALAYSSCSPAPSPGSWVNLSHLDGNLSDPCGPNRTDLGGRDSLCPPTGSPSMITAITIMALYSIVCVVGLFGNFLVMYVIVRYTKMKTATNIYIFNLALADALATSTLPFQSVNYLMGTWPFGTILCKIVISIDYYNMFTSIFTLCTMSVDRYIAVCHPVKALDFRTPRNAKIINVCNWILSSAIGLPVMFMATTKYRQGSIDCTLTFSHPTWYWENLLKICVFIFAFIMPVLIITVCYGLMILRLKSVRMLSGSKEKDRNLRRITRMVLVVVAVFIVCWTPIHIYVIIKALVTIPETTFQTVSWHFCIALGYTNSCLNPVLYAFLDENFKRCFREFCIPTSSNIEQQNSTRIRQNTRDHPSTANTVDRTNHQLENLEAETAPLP

[27] = target: 5-hydroxytryptamine receptor 2A (Mus musculus, UniProt P35363); format: functional, cell-based;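 also: CHO-K1 cells with tagged receptor and beta-arrestin; agonist potency measured as compound-induced activation of the receptor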
Chain of 5-hydroxytryptamine receptor 2A (P35363 whole entry): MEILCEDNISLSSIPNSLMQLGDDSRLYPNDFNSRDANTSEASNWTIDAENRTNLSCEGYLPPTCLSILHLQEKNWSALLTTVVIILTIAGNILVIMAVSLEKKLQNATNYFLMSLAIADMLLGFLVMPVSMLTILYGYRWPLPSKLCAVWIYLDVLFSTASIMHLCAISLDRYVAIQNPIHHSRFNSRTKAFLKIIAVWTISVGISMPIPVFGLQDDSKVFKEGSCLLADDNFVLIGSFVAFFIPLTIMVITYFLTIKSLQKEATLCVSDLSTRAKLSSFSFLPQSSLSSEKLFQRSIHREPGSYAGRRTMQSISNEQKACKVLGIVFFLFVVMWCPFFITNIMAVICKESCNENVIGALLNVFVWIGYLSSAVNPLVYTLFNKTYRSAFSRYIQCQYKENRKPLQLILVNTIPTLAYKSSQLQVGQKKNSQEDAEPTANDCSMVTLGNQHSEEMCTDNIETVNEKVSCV

[28] = target: COUP transcription factor 2 (Homo sapiens, UniProt P24468); assay: Luminescence-based cell-based high throughput dose response assay to identify inhibitors of COUP-TFII (NR2F2).; format: functional;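 also: HEK293 cells transiently cotransfected with COUP-TFII expression vector and reporter; luciferase reporter luminescence driven by COUP-TFII from the pX2-168 reporter plasmid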
Chain of COUP transcription factor 2 (P24468 whole entry): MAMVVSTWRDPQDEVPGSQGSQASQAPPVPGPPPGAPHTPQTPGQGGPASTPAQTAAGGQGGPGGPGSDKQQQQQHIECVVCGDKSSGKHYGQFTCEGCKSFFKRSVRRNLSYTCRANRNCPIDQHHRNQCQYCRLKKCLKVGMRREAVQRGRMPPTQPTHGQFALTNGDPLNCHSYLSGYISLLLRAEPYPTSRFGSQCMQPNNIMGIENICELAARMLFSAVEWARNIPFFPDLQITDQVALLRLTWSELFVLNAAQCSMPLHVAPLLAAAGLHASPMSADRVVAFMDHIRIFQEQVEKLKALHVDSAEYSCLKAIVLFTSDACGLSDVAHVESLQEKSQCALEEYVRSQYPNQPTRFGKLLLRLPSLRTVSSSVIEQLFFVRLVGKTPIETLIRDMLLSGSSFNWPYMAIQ

[29] = cytotoxicity in HEK293 background cells – cell-based, dry powder, set 2, counter-screen for EBV LMP1 inhibitor project, dose response (AID 624374); format: functional

Compound: CC(C)Oc1ccc(C(=O)Nc2nc3ccccc3[nH]2)cc1
- AC50 [1]: 15.1 µM (active)
- AC50 [2]: 2.16 µM (active)
- AC50 [3]: 18.8 µM (active)
- AC50 [4]: 16.2 µM (active)
- AC50 [5]: 1.2 µM (active)
- EC50 (Streptococcus): 28.6 µM (active)
- IC50 [6]: 17.8 µM (not active)
- EC50 (Streptokinase A): > 150 µM (not active)
- EC50 [7]: 3.4 µM (active)

Compound: Cc1nc2ccc(NC(=O)c3ccc(S(=O)(=O)N(C)c4ccccc4)cc3)cc2s1
- IC50 [8]: > 69.5 µM (inactive)
- IC50 [9]: > 69.5 µM (inactive)

Compound: Cc1ccc(N(CC(=O)NCCSCc2ccco2)S(=O)(=O)c2ccc(F)cc2)cc1
- AC50 (HEK293): 31.9 µM (active)
- CC50 [10]: > 40 µM (active)
- AC50 [11]: 31.9 µM (active)

Compound: Oc1nc(CSc2ncc(C(F)(F)F)cc2Cl)nc2ccccc12
- IC50 [12]: 5.35 µM (active)
- IC50 [13]: 35.7 µM (inactive)
- IC50 [14]: 14.4 µM (inactive)

Compound: Cc1ccc2nc(C(F)(F)F)c(C#N)c(N)c2c1
- EC50 [15]: 7.2 µM (active)
- AC50 [1]: 16 µM (active)
- EC50 [16]: > 20 µM (not active)
- AC50 [3]: 24.2 µM (active)
- AC50 [4]: > 52 µM (inactive)
- AC50 [5]: 22.9 µM (active)

Compound: Brc1ccc2[nH]c3c(NCc4ccccn4)ncnc3c2c1
- IC50 [12]: 3.47 µM (active)
- IC50 [13]: 83.3 µM (inactive)
- IC50 [14]: 5.71 µM (active)

Compound: N#CCn1cnc2sc(-c3ccccc3)cc2c1=O
- EC50 [17]: > 91.2 µM (inactive)
- EC50 [18]: > 91.2 µM (inactive)

Compound: CC(C)(C)CC(=O)O/N=C(\N)c1ccccn1
- EC50 [17]: > 91.1 µM (inactive)
- EC50 [18]: > 91.1 µM (inactive)

Compound: COc1ccc(C(=O)Nc2nc(-c3ccc(S(=O)(=O)N4CCOCC4)cc3)cs2)cc1
- AC50 [19]: 7.62 µM (active)
- AC50 [20]: 63.4 µM (active)
- AC50 [21]: 0.664 µM (active)
- AC50 [22]: 40.3 µM (active)

Compound: O=C(COC(=O)/C=C/C(=O)OCC(=O)Nc1ccccc1F)Nc1ccccc1F
- AC50 [23]: 7.02 µM (active)
- EC50 [24]: 11.1 µM (active)
- AC50 [25]: 44.3 µM (active)

Compound: O=C(Nc1ccc(SC(F)(F)F)cc1)c1ccccn1
- IC50 (cells): > 67.5 µM (inactive)
- IC50 [26]: > 0.834 µM (active)

Compound: CCOc1ccc(CN2CCN(C(=O)c3ccco3)CC2)cc1
- EC50 (Mu-type opioid receptor): 92.5 µM (inactive)
- EC50 [27]: 0.965 µM (active)

Compound: CC12CCC(C(=O)N(CCCCN3CCN(c4ccccn4)CC3)C1=O)C2(C)C (centres undefined)
- EC50 (Mu-type opioid receptor): 92.5 µM (inactive)
- EC50 [27]: 0.0105 µM (active)

Compound: Cc1cccc(N2CCN(C(=O)c3[nH]c(C(F)(F)F)nc3-c3ccccc3)CC2)c1C
- IC50 (cells): > 67.5 µM (inactive)
- IC50 [26]: > 67.5 µM (inactive)

Compound: CCNc1nc(-c2sc(NC(=O)C(C)(C)C)nc2C)c(-n2cc(-c3ccccc3)nn2)s1
- IC50 [28]: 10.7 µM (inactive)

Compound: N#C[C@@H]1[C@H](c2ccc(-c3cccc(F)c3)cc2)[C@H](CO)N1C(=O)c1cccnc1
- AC50 [19]: 3.62 µM (active)
- AC50 [22]: 57.4 µM (active)

Compound: N#C[C@H]1[C@@H](c2ccc(-c3cccnc3)cc2)[C@@H](CO)N1C(=O)Nc1ccc(F)cc1
- AbsAC35 [29]: 162.11 µM

— ChEMBL document CHEMBL1201862, “PubChem BioAssay data set” (2004)
